In publication PMC7928206 (Toxicology in vitro : an international journal published in …, 2021):

Assays:
[1] = molecular target: rat serum butyrylcholinesterase (BChE) (Rattus norvegicus, UniProt Q9JKC1); type: biochemical
[2] = molecular target: T1, rat brain acetylcholinesterase (AChE) (Rattus norvegicus, UniProt P37136); type: biochemical; conditions: in brain and peripheral tissues
T1 sequence (P37136 32-614): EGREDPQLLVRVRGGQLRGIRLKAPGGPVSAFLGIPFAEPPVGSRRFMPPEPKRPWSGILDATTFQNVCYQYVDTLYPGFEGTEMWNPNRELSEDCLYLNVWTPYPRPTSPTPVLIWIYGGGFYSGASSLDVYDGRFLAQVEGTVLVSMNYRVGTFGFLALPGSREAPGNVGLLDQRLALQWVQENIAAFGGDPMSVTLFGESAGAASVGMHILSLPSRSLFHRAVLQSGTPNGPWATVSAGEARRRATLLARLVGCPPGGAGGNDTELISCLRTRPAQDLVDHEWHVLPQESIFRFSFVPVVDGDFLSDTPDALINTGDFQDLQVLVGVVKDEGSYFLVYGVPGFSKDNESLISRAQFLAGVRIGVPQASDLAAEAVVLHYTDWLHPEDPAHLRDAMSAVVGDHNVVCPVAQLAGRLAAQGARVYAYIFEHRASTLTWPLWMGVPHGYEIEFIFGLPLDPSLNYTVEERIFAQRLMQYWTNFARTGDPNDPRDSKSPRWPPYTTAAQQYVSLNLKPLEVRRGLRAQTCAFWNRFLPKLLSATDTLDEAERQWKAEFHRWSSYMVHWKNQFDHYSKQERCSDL

[3] = Observed stability of the compound; conditions: also propensity to adhere to glass

Chain of rat serum butyrylcholinesterase (BChE) (Q9JKC1 24-597): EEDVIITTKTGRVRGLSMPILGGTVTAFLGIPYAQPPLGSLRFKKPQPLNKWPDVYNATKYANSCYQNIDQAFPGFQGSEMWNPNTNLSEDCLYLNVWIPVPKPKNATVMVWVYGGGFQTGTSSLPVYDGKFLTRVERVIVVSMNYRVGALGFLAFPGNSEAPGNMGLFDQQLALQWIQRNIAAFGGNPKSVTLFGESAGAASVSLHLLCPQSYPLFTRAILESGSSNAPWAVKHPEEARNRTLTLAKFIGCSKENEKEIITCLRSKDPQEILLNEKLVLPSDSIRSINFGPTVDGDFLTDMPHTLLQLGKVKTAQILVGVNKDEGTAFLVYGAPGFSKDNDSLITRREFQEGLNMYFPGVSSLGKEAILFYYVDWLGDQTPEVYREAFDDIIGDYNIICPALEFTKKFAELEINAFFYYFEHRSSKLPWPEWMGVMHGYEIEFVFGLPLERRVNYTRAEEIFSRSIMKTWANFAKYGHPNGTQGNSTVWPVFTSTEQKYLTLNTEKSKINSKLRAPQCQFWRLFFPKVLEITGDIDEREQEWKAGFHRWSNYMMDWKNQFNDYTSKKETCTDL

Compound: COP(=O)(OC)SCn1nnc2ccccc2c1=O [Azinphos-methyl-oxon]
- Serum BChE inhibition, result in words [1]: not good inhibitors of serum BChE

Compound: CCOP(=O)(OCC)Oc1nc(Cl)c(Cl)cc1Cl [Chlorpyrifos-oxon]
- fold more potent AChE inhibitor than ethyl-ronnel-oxon [2]: about 70 fold

Compound: CCOP(=O)(OCC)Oc1cc(C)nc(C(C)C)n1 [Diazoxon]
- stability, result in words [3]: particularly unstable
